We go through two molecules from patent US9784725B2, “Light refraction imaging to measure liquid volume” (University of Pittsburgh—Of the Commonwealth System of …, priority 2016, dated 2017).

Experiment [1] deals with differentiated CF HBE cells. Put plainly: ASL volume by refracted light microscopy after apical fluid bolus, isotonic versus hypertonic. The format is cell-based, human. The following applies: 5 μL PBS with 300 mM mannitol applied apically; ASL volume measured at 0, 4, 8, 24, 48 and 72 hours; FIG. 7. As for the experimental part: (§1) HBE cells were cultured from excess pathological tissue following lung transplantation and organ donation under protocols approved by the Universities of Pittsburgh and North Carolina Investigational Review Boards. Cells were studied following 3-6 weeks of culture and considered differentiated when a mucociliary phenotype was apparent on phase contrast microscopy. HBE cultures grown in a twenty four well plate on 0.33 cm^2 filter inserts (See, e.g., FIG. 1B) were visualized with a standard cell culture microscope (Olympus CK40) with a 5× plain light objective (Zeiss) and imaged using a Scion CFW 1610M camera with μManager (30). […] In order to standardize the quantification of the meniscus image, a custom script using the open-source ImageJ software was developed. […] The length of the meniscus can be determined as the length from where the grey value is greater than min to the end of the array and the area under the curve (AUC) is measured using the numerically integrated rectangular rule. […] Therefore, the correlation between the derived parameters of the intensity profile and the ASL volume were determined, rather than mathematically calculating the volume based on the AUC of the intensity profile. […] Thus, the ASL volume can be measured from the image of the meniscus by integrating the […] value with the experimentally derived calibration curve shown in FIG. 4B. […]

Experiment [2] relates to differentiated HBE cultures. Put plainly: ASL volume by refracted light microscopy of the meniscus, bumetanide treatment. The format is cell-based, human. The following applies: 100 μM bumetanide for three days prior to measurement; mean ±SEM; control filters 10.6±1.0 μL; p<0.001. As to the method: as §1

Regarding `OC[C@@H](O)[C@@H](O)[C@H](O)[C@H](O)CO` [mannitol], the “ASL volume expansion compared to isotonic fluid” value in experiment [1] was “more pronounced and prolonged ASL volume expansion”.

`CCCCNc1cc(C(=O)O)cc(S(N)(=O)=O)c1Oc1ccccc1` [bumetanide] registered an ASL volume in experiment [2] of 1.1 ± 0.1 µL.
